Measurements: ChEMBL document CHEMBL1156974, “Design, synthesis and in vitro/in vivo evaluation of orally bioavailable prodrugs of a catechol-O-methyltransferase inhibitor” (Bioorg Med Chem Lett, 2010)
Values after ≈ are worked out from the molar mass of the structure shown.

Legend:
[1] = Aqueous solubility in acetate buffer at pH 4.0 by HPLC analysis; format: physicochemical
[2] = Half life in human serum by HPLC analysis; format: ADME, cell-free
[3] = Aqueous solubility in HCl buffer at pH 1.2 by HPLC analysis; format: physicochemical
[4] = Uncoupling activity in Wistar rat mitochondria assessed as increase in oxygen consumption by mitochondrial respiration assay relative to 10 uM dinitrophenol; format: ADME
[5] = molecular target: T1, Catechol O-methyltransferase (Homo sapiens, UniProt P21964); experiment: Inhibition of human recombinant COMT by microplate screening assay
T1 sequence (P21964 whole entry): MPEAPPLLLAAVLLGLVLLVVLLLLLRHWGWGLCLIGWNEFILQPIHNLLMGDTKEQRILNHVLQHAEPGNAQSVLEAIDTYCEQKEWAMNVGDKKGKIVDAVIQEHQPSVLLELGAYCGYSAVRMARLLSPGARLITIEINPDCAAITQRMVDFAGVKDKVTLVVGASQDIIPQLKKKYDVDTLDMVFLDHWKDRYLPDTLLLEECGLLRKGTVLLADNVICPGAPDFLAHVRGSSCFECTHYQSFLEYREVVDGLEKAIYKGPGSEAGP

[6] = Distribution coefficient, log D at pH 7.4 by HPLC analysis; format: physicochemical; conditions: octanol/water
[7] = Aqueous solubility in phosphate buffer at pH 7.4 by HPLC analysis; format: physicochemical
[8] = Half life in rat liver homogenate by HPLC analysis; format: ADME, tissue-based
[9] = Chemical stability in phosphate buffer assessed as hydrolysis half life at pH 7.4 by HPLC analysis; format: physicochemical
[10] = Chemical stability in phosphate buffer at pH 7.4 up to 1 week by HPLC analysis; format: physicochemical; conditions: pH 7.4, 168 h
[11] = Chemical stability in acetate buffer assessed as hydrolysis half life at pH 4.0 by HPLC analysis; format: physicochemical
[12] = tested on: Serum; experiment: Metabolic stability in human serum up to 8 hrs by HPLC analysis; format: ADME, cell-free
[13] = Chemical stability in […] up to 1 week by HPLC analysis; format: physicochemical; conditions: pH 4, 168 h
[14] = Chemical stability in fasted state simulated intestinal fluid up to 8 hrs by HPLC analysis; format: physicochemical; conditions: simulated gi fluid
[15] = tested on: Rattus norvegicus; experiment: AUC in Wistar rat at 10 umol/kg, po up to 6 hrs by LC/MS/MS relative to 3-Chloro-5,6-dihydroxy-7-nitro-benzo[b]thiophene-2-carboxylic acid; format: ADME, organism-based, Plasma; conditions: in vivo
[16] = Distribution coefficient, log D at pH 1.2 by HPLC analysis; format: physicochemical; conditions: octanol/water
[17] = Distribution coefficient, log D at pH 4.0 by HPLC analysis; format: physicochemical; conditions: octanol/water
[18] = Chemical stability in fasted state simulated intestinal fluid assessed as hydrolysis half life by HPLC analysis; format: physicochemical
[19] = acetate buffer, read-out: solubility
[20] = HCl buffer, read-out: solubility
[21] = buffer, BLD = below limit of detection

| Compound | solubility [1, 19] [µg/mL] | half-life [2] [h] | solubility [3, 20] [µg/mL] | Uncoupling concentration [4] [µM] | Ki [5] [nM] | logD ([6]; read-out: logD) | solubility [7] [µg/mL] | half-life [8] [h] | half-life [9] [h] | solubility [3, 21] | Stability [10] | half-life [11] [h] | Stability [12] | fold change (FC) [15] | also measured |
| --- | --- | --- | --- | --- | --- | --- | --- | --- | --- | --- | --- | --- | --- | --- | --- |
| CCCC(=O)OC(C)OC(=O)c1sc2c([N+](=O)[O-])c(O)c(O)cc2c1Cl (stereo unspecified) | 4.6 (≈ 11.4 µM) | 25 | 0.5 (≈ 1.24 µM) | > 50 | 16.6 | 2.16 | 60.4 (≈ 150 µM) | ≤ 0.0167 | 4.5 |  |  |  |  |  |  |
| CC(C)OC(=O)c1sc2c([N+](=O)[O-])c(O)c(O)cc2c1Cl | 0.5 (≈ 1.51 µM) |  |  | > 1 | 1.1 | 1.14 | 18.7 (≈ 56.4 µM) | 2.18 |  | BLD | Stable | 552 | Stable |  |  |
| COC(=O)c1sc2c([N+](=O)[O-])c(O)c(O)cc2c1Cl | 4.2 (≈ 13.8 µM) |  | 0.7 (≈ 2.31 µM) | > 10 | 2.2 | 1.51 | 11.4 (≈ 37.5 µM) | 0.33 |  |  | Stable |  | Stable |  | Stability [13]: Stable |
| CC(C)C(=O)OCOC(=O)c1sc2c([N+](=O)[O-])c(O)c(O)cc2c1Cl |  | 5.1 |  | > 50 | 17 | 2.91 | ≥ 200 | ≤ 0.0167 | 7.6 | BLD |  | 202 |  | 2 | solubility [1, 21]: BLD; Stability [14]: Stable |
| O=C(O)c1sc2c([N+](=O)[O-])c(O)c(O)cc2c1Cl | 53 (≈ 183 µM) |  | 3.9 (≈ 13.5 µM) | > 50 |  | 0.06 | 15000 (≈ 51800 µM) |  |  |  |  |  |  |  | logD [16]: 3.64; Stability [14]: Stable; logD [17]: 1.8 |
| CCCCOC(=O)c1sc2c([N+](=O)[O-])c(O)c(O)cc2c1Cl | 0.7 (≈ 2.02 µM) |  |  | > 2.5 | 1.3 |  | 3.2 (≈ 9.25 µM) | 0.698 |  | BLD | Stable |  | Stable |  | logD ([6]; BLD = below limit of detection): BLD |
| O=C(OCc1ccccc1)c1sc2c([N+](=O)[O-])c(O)c(O)cc2c1Cl |  |  |  | > 10 | 10.2 |  | 6.9 (≈ 18.2 µM) | 0.865 | 21.6 | BLD |  |  | Stable |  | solubility [1, 21]: BLD; logD ([6]; BLD = below limit of detection): BLD |
| CC(OC(=O)c1sc2c([N+](=O)[O-])c(O)c(O)cc2c1Cl)OC(=O)C(C)C (stereo unspecified) | 0.6 (≈ 1.49 µM) | 32.3 |  | > 50 | 17 | 3.02 | 258 (≈ 639 µM) | ≤ 0.0167 | 48 | BLD |  |  |  | 0.5 | Stability [14]: Stable |
| CC(C)C(N)C(=O)OCOC(=O)c1sc2c([N+](=O)[O-])c(O)c(O)cc2c1Cl (stereo unspecified) | 17.5 (≈ 41.8 µM) | 0.06 | 6600 (≈ 15800 µM) | 25 | 6 |  | 10 (≈ 23.9 µM) | ≤ 0.0167 | 2 |  |  | 40.8 |  | 0.4 | half-life [18]: 31.7 h |
| CCCOC(=O)c1sc2c([N+](=O)[O-])c(O)c(O)cc2c1Cl | 0.5 (≈ 1.51 µM) |  |  | > 5 | 9.2 | 2.45 | 10.8 (≈ 32.6 µM) | 0.34 |  | BLD | Stable | 744 | Stable |  |  |
| CCCC(=O)OCOC(=O)c1sc2c([N+](=O)[O-])c(O)c(O)cc2c1Cl |  | 5.3 |  | > 50 | 10.6 |  |  | ≤ 0.0167 | 2.5 |  |  |  |  |  |  |
| O=C(OCc1coc(=O)o1)c1sc2c([N+](=O)[O-])c(O)c(O)cc2c1Cl |  | 0.03 |  |  | 1.6 |  |  | ≤ 0.0167 | 11.7 |  |  | 93.6 |  | 2.1 | half-life [18]: 167 h |
